Laboratory results: patent US20260035384A1, “COMPOUND CONTAINING CYCLOHEXYL” (CHIA TAI TIANQING PHARMACEUTICAL GROUP CO., LTD., priority 2022, published 2026)

Tested on: VCaP cells
Test: Assay on inhibitory activity for VCaP cell proliferation (CCK-8)
Assay type: cell-based
Settings: 168 h incubation
Description: (§1) 2.1 Assay on inhibitory activity for VCaP cell proliferation VCaP cells in a good growth state were taken, washed with PBS, digested with pancreatin, and added with 5% CSS—FBS phenol red-free DMEM complete medium to terminate the digestion. The cells were collected by using a centrifuge tube, adjusted to a cell density of 1×10^5 cells/mL, and seeded in a 96-well plate (100 μL/well). Meanwhile, compounds were added using a nanoliter pipettor such that the final concentrations of the compounds were 10000 nM-0.61 nM. Two duplicate wells were set for each concentration, and meanwhile, a control was set. After another 168 h of incubation in the cell incubator, the detection reagent CCK-8 (manufacturer: Dojindo, 10 μL/well) was added.

SMILES | IC50 [nM]
N#Cc1ccc(O[C@H]2CC[C@H](NC(=O)c3cnc(C4CCN(C5CN(CC6Cc7ccc8c(C9CCC(=O)NC9=O)coc8c7C6)C5)CC4)nc3)CC2)cc1Cl (stereo partly drawn) [Compound 111] | < 100
N#Cc1ccc(O[C@H]2CC[C@H](NC(=O)c3cnc(C4CCN(C5CN(CC6Cc7ccc8c(C9CCC(=O)NC9=O)coc8c7C6)C5)CC4)nc3)CC2)cc1Cl (stereo partly drawn) [Compound 112] | < 1000
N#Cc1ccc(O[C@H]2CC[C@H](NC(=O)c3cnc(N4CCN(CC5Cc6ccc7c(C8CCC(=O)NC8=O)noc7c6C5)CC4)nc3)CC2)cc1Cl (stereo partly drawn) [Compound 124] | < 1000

Same assay, conditions: Homo sapiens, 168 h incubation

SMILES | IC50 [nM]
CN(c1ccc(C#N)c(Cl)c1)[C@H]1CC[C@H](NC(=O)c2ccc(N3CCC(CN4CCc5ccc6c(C7CCC(=O)NC7=O)noc6c5CC4)CC3)cc2)CC1 (stereo partly drawn) [Compound 59] | < 10

Same assay, conditions: Homo sapiens, VCaP, 168 h, 168 h incubation

SMILES | IC50 [nM]
N#Cc1ccc(O[C@H]2CC[C@H](NC(=O)c3ccc(N4CCN(CC5Cc6ccc7c(C8CCC(=O)NC8=O)coc7c6C5)CC4)nn3)CC2)cc1Cl (stereo partly drawn) [Compound 28] | < 100
N#Cc1ccc(O[C@H]2CC[C@H](NC(=O)c3ccc(N4CCC(CN5CCC(n6ccc7c8c(C9CCC(=O)NC9=O)noc8ccc76)CC5)CC4)nn3)CC2)cc1Cl (stereo partly drawn) [Compound 41] | < 10
N#Cc1ccc(O[C@H]2CC[C@H](NC(=O)c3ccc(N4CCC(CN5CC(n6ncc7c8c(C9CCC(=O)NC9=O)noc8ccc76)C5)CC4)nn3)CC2)cc1Cl (stereo partly drawn) [Compound 42] | < 10
N#Cc1ccc(O[C@H]2CC[C@H](NC(=O)c3ccc(C4CCN(C5CC(n6ncc7c8c(C9CCC(=O)NC9=O)noc8ccc76)C5)CC4)nn3)CC2)cc1Cl (stereo partly drawn) [Compound 46] | < 10
CN(c1ccc(C#N)c(Cl)c1)[C@H]1CC[C@H](NC(=O)c2ccc(C3CCN(CC4Cc5ccc6c(C7CCC(=O)NC7=O)noc6c5C4)CC3)cc2)CC1 (stereo partly drawn) [Compound 68] | < 10
N#Cc1ccc(O[C@H]2CC[C@H](NC(=O)c3ccc(N4CCC(N5CC(CN6CCc7ccc8c(C9CCC(=O)NC9=O)noc8c7CC6)C5)CC4)nn3)CC2)cc1Cl (stereo partly drawn) [Compound 93] | < 10
N#Cc1ccc(O[C@H]2CC[C@H](NC(=O)c3ccc(N4CCC(N5CC(CN6CCc7ccc8c(C9CCC(=O)NC9=O)coc8c7CC6)C5)CC4)nn3)CC2)cc1Cl (stereo partly drawn) [Compound 99] | < 100
N#Cc1ccc(O[C@H]2CC[C@H](NC(=O)c3ccc(N4CCC(N5CC(CN6Cc7cc8onc(C9CCC(=O)NC9=O)c8cc7C6)C5)CC4)nn3)CC2)cc1Cl (stereo partly drawn) [Compound 101] | < 10
N#Cc1ccc(O[C@H]2CC[C@H](NC(=O)c3cnc(N4CCC(N5CC(CN6Cc7ccc8c(C9CCC(=O)NC9=O)coc8c7C6)C5)CC4)nc3)CC2)cc1Cl (stereo partly drawn) [Compound 103] | < 10
N#Cc1ccc(O[C@H]2CC[C@H](NC(=O)c3cnc(N4CCC(N5CC(CN6CCc7ccc8c(C9CCC(=O)NC9=O)coc8c7C6)C5)CC4)nc3)CC2)cc1Cl (stereo partly drawn) [Compound 104] | < 10
N#Cc1ccc(O[C@H]2CC[C@H](NC(=O)c3cnc(N4CCC(N5CC(CN6CCc7c(ccc8c(C9CCC(=O)NC9=O)coc78)C6)C5)CC4)nc3)CC2)cc1Cl (stereo partly drawn) [Compound 105] | < 10
N#Cc1ccc(O[C@H]2CC[C@H](NC(=O)c3cnc(N4CCC(N5CC(CN6CCc7ccc8c(C9CCC(=O)NC9=O)coc8c7CC6)C5)CC4)nc3)CC2)cc1Cl (stereo partly drawn) [Compound 106] | < 100
CN(c1ccc(C#N)c(Cl)c1)[C@H]1CC[C@H](NC(=O)c2cnc(N3CC(CN4CCc5c(ccc6c(C7CCC(=O)NC7=O)noc56)C4)C3)nc2)CC1 (stereo partly drawn) [Compound 114] | < 100
CN(c1ccc(C#N)c(Cl)c1)[C@H]1CC[C@H](NC(=O)c2cnc(N3CCC(CN4Cc5ccc6c(C7CCC(=O)NC7=O)noc6c5C4)CC3)nc2)CC1 (stereo partly drawn) [Compound 115] | < 1000
N#Cc1ccc(O[C@H]2CC[C@H](NC(=O)c3cnc(N4CCC(CN5CCc6ccc7c(C8CCC(=O)NC8=O)noc7c6C5)CC4)nc3)CC2)cc1Cl (stereo partly drawn) [Compound 120] | < 1000
N#Cc1ccc(O[C@H]2CC[C@H](NC(=O)c3cnc(C4CCN(CC5Cc6ccc7c(C8CCC(=O)NC8=O)noc7c6C5)CC4)nc3)CC2)cc1Cl (stereo partly drawn) [Compound 125] | < 1000
N#Cc1ccc(O[C@H]2CC[C@H](NC(=O)c3cnc(C4=CCN(CC5Cc6ccc7c(C8CCC(=O)NC8=O)noc7c6C5)CC4)nc3)CC2)cc1Cl (stereo partly drawn) [Compound 127] | < 100

Tested on: LNCaP cells
Test: Assay on inhibitory activity for LNCaP cell proliferation (CCK-8)
Assay type: cell-based
Settings: 168 h incubation
Description: as §1, with “LNCaP” for “2.1 Assay on inhibitory activity for VCaP cell proliferation VCaP”, “2%” for “5%”, “1640” for “DMEM”

SMILES | IC50 [nM]
N#Cc1ccc(O[C@H]2CC[C@H](NC(=O)c3ccc(C4CCN(CC5Cc6ccc7c(C8CCC(=O)NC8=O)noc7c6C5)CC4)nn3)CC2)cc1Cl (stereo partly drawn) [Compound 31] | < 1000
N#Cc1ccc(O[C@H]2CC[C@H](NC(=O)c3ccc(C4CCN(CC5Cc6ccc7c(C8CCC(=O)NC8=O)coc7c6C5)CC4)nn3)CC2)cc1Cl (stereo partly drawn) [Compound 33] | < 1000
N#Cc1ccc(O[C@H]2CC[C@H](NC(=O)c3cnc(C4CCN(C5CN(CC6Cc7ccc8c(C9CCC(=O)NC9=O)coc8c7C6)C5)CC4)nc3)CC2)cc1Cl (stereo partly drawn) [Compound 112] | < 1000

Same assay, conditions: Homo sapiens, 168 h incubation

SMILES | IC50 [nM]
N#Cc1ccc(O[C@H]2CC[C@H](NC(=O)c3ccc(C4CCN(C[C@H]5C[C@@H](n6ccc7c8c(C9CCC(=O)NC9=O)noc8ccc76)C5)CC4)nn3)CC2)cc1Cl (single isomer, unassigned) [Compound 51] | < 1000
N#Cc1ccc(O[C@H]2CC[C@H](NC(=O)c3ccc(C4CCN(C[C@H]5C[C@H](n6ccc7c8c(C9CCC(=O)NC9=O)noc8ccc76)C5)CC4)nn3)CC2)cc1Cl (single isomer, unassigned) [Compound 52] | < 1000
N#Cc1ccc(O[C@H]2CC[C@H](NC(=O)c3ccc(N4CCC(N5CCc6ccc7c(C8CCC(=O)NC8=O)noc7c6CC5)CC4)nn3)CC2)cc1Cl (stereo partly drawn) [Compound 23] | < 1000
N#Cc1ccc(O[C@H]2CC[C@H](NC(=O)c3ccc(N4CCN(CC5Cc6ccc7c(C8CCC(=O)NC8=O)coc7c6C5)CC4)nn3)CC2)cc1Cl (stereo partly drawn) [Compound 28] | < 1000
N#Cc1ccc(O[C@H]2CC[C@H](NC(=O)c3ccc(N4CCN(CC5Cc6cc(C7CCC(=O)NC7=O)c7ccoc7c6C5)CC4)nn3)CC2)cc1Cl (stereo partly drawn) [Compound 29] | < 1000
N#Cc1ccc(O[C@H]2CC[C@H](NC(=O)c3ccc(C4CCN(CC5Cc6ccc7c(C8CCC(=O)NC8=O)noc7c6C5)CC4)nn3)CC2)cc1Cl (stereo partly drawn) [Compound 30] | < 1000
N#Cc1ccc(O[C@H]2CC[C@H](NC(=O)c3ccc(C4CCN(CC5Cc6ccc7c(C8CCC(=O)NC8=O)coc7c6C5)CC4)nn3)CC2)cc1Cl (stereo partly drawn) [Compound 32] | < 1000
N#Cc1ccc(O[C@H]2CC[C@H](NC(=O)c3ccc(N4CCC(CN5CC(n6ccc7c8c(C9CCC(=O)NC9=O)noc8ccc76)C5)CC4)nn3)CC2)cc1Cl (stereo partly drawn) [Compound 38] | < 1000
N#Cc1ccc(O[C@H]2CC[C@H](NC(=O)c3ccc(N4CCC(N5CC(n6ccc7c8c(C9CCC(=O)NC9=O)noc8ccc76)C5)CC4)nn3)CC2)cc1Cl (stereo partly drawn) [Compound 39] | < 1000
N#Cc1ccc(O[C@H]2CC[C@H](NC(=O)c3ccc(N4CCC(N5CCC(n6ccc7c8c(C9CCC(=O)NC9=O)noc8ccc76)CC5)CC4)nn3)CC2)cc1Cl (stereo partly drawn) [Compound 40] | < 1000
N#Cc1ccc(O[C@H]2CC[C@H](NC(=O)c3ccc(N4CCC(CN5CCC(n6ccc7c8c(C9CCC(=O)NC9=O)noc8ccc76)CC5)CC4)nn3)CC2)cc1Cl (stereo partly drawn) [Compound 41] | < 1000
N#Cc1ccc(O[C@H]2CC[C@H](NC(=O)c3ccc(N4CCC(N5CC(n6ncc7c8c(C9CCC(=O)NC9=O)noc8ccc76)C5)CC4)nn3)CC2)cc1Cl (stereo partly drawn) [Compound 43] | < 1000
N#Cc1ccc(O[C@H]2CC[C@H](NC(=O)c3ccc(N4CCC(CN5CC(n6cc7c(ccc8onc(C9CCC(=O)NC9=O)c87)n6)C5)CC4)nn3)CC2)cc1Cl (stereo partly drawn) [Compound 44] | < 1000
N#Cc1ccc(O[C@H]2CC[C@H](NC(=O)c3ccc(C4CCN(C5CC(n6ncc7c8c(C9CCC(=O)NC9=O)noc8ccc76)C5)CC4)nn3)CC2)cc1Cl (stereo partly drawn) [Compound 46] | < 1000
N#Cc1ccc(O[C@H]2CC[C@H](NC(=O)c3ccc(C4CCN([C@H]5C[C@@H](n6ccc7c8c(C9CCC(=O)NC9=O)noc8ccc76)C5)CC4)nn3)CC2)cc1Cl (stereo partly drawn) [Compound 49] | < 1000
N#Cc1ccc(O[C@H]2CC[C@H](NC(=O)c3ccc(C4CCN([C@H]5C[C@H](n6ccc7c8c(C9CCC(=O)NC9=O)noc8ccc76)C5)CC4)nn3)CC2)cc1Cl (stereo partly drawn) [Compound 50] | < 1000
N#Cc1ccc(O[C@H]2CC[C@H](NC(=O)c3ccc(C4CCN([C@H]5CC[C@@H](n6ccc7c8c(C9CCC(=O)NC9=O)noc8ccc76)CC5)CC4)nn3)CC2)cc1Cl (stereo partly drawn) [Compound 54] | < 1000
N#Cc1ccc(O[C@H]2CC[C@H](NC(=O)c3ccc(C4CCN([C@H]5CC[C@H](n6ccc7c8c(C9CCC(=O)NC9=O)noc8ccc76)CC5)CC4)nn3)CC2)cc1Cl (stereo partly drawn) [Compound 55] | < 1000
N#Cc1ccc(O[C@H]2CC[C@H](NC(=O)c3ccc(N4CCC(N5CC(CN6CCc7ccc8c(C9CCC(=O)NC9=O)noc8c7CC6)C5)CC4)nn3)CC2)cc1Cl (stereo partly drawn) [Compound 93] | < 1000
N#Cc1ccc(O[C@H]2CC[C@H](NC(=O)c3ccc(N4CCC(N5CC(CN6CCc7ccc8c(C9CCC(=O)NC9=O)coc8c7CC6)C5)CC4)nn3)CC2)cc1Cl (stereo partly drawn) [Compound 99] | < 1000
N#Cc1ccc(O[C@H]2CC[C@H](NC(=O)c3ccc(N4CCC(CN5Cc6cc7onc(C8CCC(=O)NC8=O)c7cc6C5)CC4)nn3)CC2)cc1Cl (stereo partly drawn) [Compound 100] | < 1000
N#Cc1ccc(O[C@H]2CC[C@H](NC(=O)c3cnc(C4CCN(C5CN(CC6Cc7ccc8c(C9CCC(=O)NC9=O)coc8c7C6)C5)CC4)nc3)CC2)cc1Cl (stereo partly drawn) [Compound 111] | < 1000
CN(c1ccc(C#N)c(Cl)c1)[C@H]1CC[C@H](NC(=O)c2cnc(N3CC(CN4CCc5c(ccc6c(C7CCC(=O)NC7=O)noc56)C4)C3)nc2)CC1 (stereo partly drawn) [Compound 114] | < 1000
CN(c1ccc(C#N)c(Cl)c1)[C@H]1CC[C@H](NC(=O)c2cnc(N3CCC(CN4CCc5ccc6c(C7CCC(=O)NC7=O)noc6c5C4)CC3)nc2)CC1 (stereo partly drawn) [Compound 116] | < 1000
N#Cc1ccc(O[C@H]2CC[C@H](NC(=O)c3cnc(N4CCC(CN5CCc6ccc7c(C8CCC(=O)NC8=O)noc7c6C5)CC4)nc3)CC2)cc1Cl (stereo partly drawn) [Compound 120] | < 1000
N#Cc1ccc(O[C@H]2CC[C@H](NC(=O)c3cnc(N4CCC(CN5CCc6ccc7c(C8CCC(=O)NC8=O)coc7c6CC5)CC4)nc3)CC2)cc1Cl (stereo partly drawn) [Compound 135] | < 1000
N#Cc1ccc(O[C@H]2CC[C@H](NC(=O)c3cnc(N4CCC(CN5Cc6ccc7c(N8CCC(=O)NC8=O)coc7c6C5)CC4)nc3)CC2)cc1Cl [Compound 138] | < 1000
N#Cc1ccc(O[C@H]2CC[C@H](NC(=O)c3cnc(N4CCC(CN5CCc6ccc7c(N8CCC(=O)NC8=O)coc7c6CC5)CC4)nc3)CC2)cc1Cl [Compound 141] | < 1000
N#Cc1ccc(O[C@H]2CC[C@H](NC(=O)c3cnc(N4CC[C@H](CN5CCc6c(ccc7c(C8CCC(=O)NC8=O)noc67)C5)C4)nc3)CC2)cc1Cl (stereo partly drawn) [Compound 143] | < 1000
N#Cc1ccc(O[C@H]2CC[C@H](NC(=O)c3cnc(N4CC[C@@H](CN5CCc6c(ccc7c(C8CCC(=O)NC8=O)noc67)C5)C4)nc3)CC2)cc1Cl (stereo partly drawn) [Compound 144] | < 1000
